Literature values in patent US6699900B2, “Hydrophilic and lipophilic silibinin pro-forms” (priority 2001, dated 2004).

Details: Merck Index, Reference 8680

In the case of `COc1cc(C2Oc3cc([C@H]4Oc5cc(O)cc(O)c5C(=O)[C@@H]4O)ccc3OC2CO)ccc1O` (stereo partly shown) [silibinin], the “solubility in aqueous or lipophilic phases” value is listed as “not readily soluble”.
